Test results from the METLIN SMRT retention time set (Domingo-Almenara et al. 2019).

Experiment: gradient 5% acetonitrile 3 min, to 50% in 2 min, to 85% in 15 min, held 3 min, 100 µL/min
Conditions: column: Zorbax Extend-C18 2.1 x 50 mm; eluents: water / acetonitrile, 0.1% formic acid
How it was run: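 Pure standards were analyzed in mixtures of ~100 molecules using HPLC coupled to a quadrupole time-of-flight mass spectrometer, in both positive and negative ionization mode. Separation used a Zorbax Extend-C18 column (2.1 × 50 mm, 1.8 μm) at 100 μL/min, with water and acetonitrile each containing 0.1% formic acid. Dead and dwell volumes were 40 μL and 900 μL, and data were collected over 3 months. Retention time was read from computationally picked adduct peaks, each inspected manually.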

| SMILES | RP-LC retention time |
| --- | --- |
| CCOC(=O)C1=C(C)N(CC(=O)NCC2CCCO2)c2ncnn2C1c1ccccc1 (stereo not given) | 747 s |
| CN(C)c1ccc(C(=O)N2CCCC2c2nc(-c3ccc(F)cc3)no2)cc1 (stereo not given) | 1020 s |
| Cc1ccc(-c2noc(Cc3nnc(-c4cccc(F)c4)o3)n2)cc1 | 1070 s |
| CN1C(=O)c2ccccc2Oc2ccc(C(=O)NCc3cccs3)cc21 | 847 s |
| CC(=O)N1CCCC1c1nc2ccccc2n1CC(=O)N1CCC(C)CC1 (stereo not given) | 567 s |
| CCn1c(=O)c2c(cc(C)n2C)n(CC(=O)Nc2cc(Cl)ccc2OC)c1=O | 888 s |
| Cc1ccccc1NC(=O)c1cnc2c(c1)c(=O)n(C)c(=O)n2-c1ccccc1 | 700 s |
| O=C(c1ccsc1)N1CCC2(CC1)NC(=O)N(Cc1ccccc1)C2=O | 754 s |
| COc1ccc(-c2noc(Cn3ccnc3C)n2)cc1OC | 589 s |
| Cc1nn(CC(=O)NCCc2ccco2)c(=O)c2c(C)n(-c3ccccc3)nc12 | 774 s |
| Cc1ccc(C)c(C(=O)NC(c2ccccc2)c2nnc(N3CCCC3)o2)c1 (stereo not given) | 841 s |
| O=C(c1ccoc1)N1CCC(c2cc(-c3ccc(F)cc3)n[nH]2)CC1 | 777 s |
| O=C(Nc1ccc2c(c1)OCCO2)C1CCN(C(=O)c2cc(-c3cccnc3)n[nH]2)CC1 | 655 s |
| COc1ccc(-n2ccn3cc(-c4ccc(F)cc4F)nc3c2=O)cc1 | 716 s |
| CCNC(=O)c1n[nH]c2c1CN(C(=O)c1cc(F)cc(F)c1)CC2 | 634 s |
| CC1CCC2(CC1)NC(=O)N(CC(=O)NCCCc1ccccc1)C2=O (stereo not given) | 832 s |
| COc1ccc(N2CCN(C(=O)C3CCCN(C(=O)c4[nH]c(C)cc4C)C3)CC2)cc1 (stereo not given) | 763 s |
| O=C(Cn1ccn2nc(-c3ccccc3)c(CO)c2c1=O)Nc1cc(F)ccc1Cl | 868 s |
| COc1ccccc1NC(=O)NCCc1nc2cccnc2n1C1CCCCC1 | 743 s |
| Cc1ccc(NS(=O)(=O)c2cc(-c3nc(C(C)(C)C)cs3)cs2)c(Cl)c1 | 1320 s |
| Cc1nc2ccccc2c(=O)n1Cc1noc(-c2ccccc2Br)n1 | 871 s |
| CCn1cccc(-c2nnc(SCC(=O)NCc3ccco3)n2C)c1=O | 576 s |
| COc1ccc(-c2nc(CS(=O)(=O)c3ccc(C)cc3)no2)c(C)c1 | 1010 s |

| SMILES | RP-LC retention time |
| --- | --- |
| CCOC(=O)c1cc(C2CC2)nc2c1c(=O)n(Cc1ccc(Cl)cc1)c(=O)n2C | 1260 s |
| Cc1ccc(-c2noc(Cn3nc(-c4ccc5c(c4)OCO5)ccc3=O)n2)cc1C | 1060 s |
| Clc1ccc2nc(N3CCOCC3)nc(-c3ccccc3)c2c1 | 882 s |
| Cn1nccc1C(=O)Nc1ccsc1-c1nc(-c2ccc(Cl)cc2)no1 | 1430 s |
| CCOC(=O)C1CCCN(S(=O)(=O)c2cc(C(=O)N3CCCCC3)n(C)c2C)C1 (stereo not given) | 858 s |
| CC(C)N1CCC(CNC(=O)c2cccc3ccccc23)CC1 | 546 s |
| Cc1ccc(Cn2c(=O)c3sccc3n(Cc3nc(-c4ccc(C)cc4)no3)c2=O)cc1 | 1140 s |
| Cc1cc2nn(CC(=O)N(C)c3ccccc3)c(=O)n2c(Nc2ccccc2C)n1 | 922 s |
| CCc1noc(NC(C)=O)c1-c1ccc(C)c(S(=O)(=O)Nc2ccc(C)cc2C)c1 | 897 s |
| CC1(C)CC(=O)c2c(nc(N3CCN(c4ccccn4)CC3)nc2Nc2ccccc2)C1 | 841 s |
| CN(Cc1cc(Br)cc(Br)c1N)C1CCCCC1 | 832 s |
| Cc1ccn2c(Nc3ccccc3C)c(-c3ccc(Cl)cc3)nc2c1 | 810 s |
| O=C(CCC1CCN(c2cc(NC3CC3)ncn2)CC1)NCc1ccc(F)c(Cl)c1 | 712 s |
| Cn1ccc2cc(S(=O)(=O)N3CCC(C(=O)N4CCN(c5ccccc5)CC4)CC3)ccc21 | 963 s |
| O=C(c1nnc(-c2csc(S(=O)(=O)N3CCN(c4ncccn4)CC3)c2)o1)N1CCCC1 | 913 s |
| c1cc(-c2noc(-c3ccoc3)n2)cc(N2CCCC2)n1 | 640 s |
| O=C(Nc1ccc(F)cc1)N1CCc2nc(-c3ccc(Cl)cc3)ncc2C1 | 1010 s |
| CCCCNC(=O)Cc1c(C)n(C)c2nc(-c3ccccc3)nn2c1=O | 665 s |
| Cc1ccc(S(=O)(=O)N2C[C@H](F)C[C@@H]2C(=O)N2CCOCC2)cc1Cl | 750 s |
| Cc1nnc(-c2ccc3ccn(CC(=O)Nc4cccc(C)c4C)c3c2)o1 | 798 s |
| CCN1C(=O)COc2ccc(-c3csc(NC(=O)C4CCCCC4)n3)cc21 | 1050 s |
| CCc1cc(=O)n(CC(=O)Nc2ccc(C)cc2Cl)c(N2CCOCC2)n1 | 942 s |
| CCn1cnc(S(=O)(=O)N2CCCC(C(=O)NCc3ccc(F)cc3)C2)c1 (stereo not given) | 712 s |

| SMILES | RP-LC retention time |
| --- | --- |
| CCCc1cc(N2CCN(C(=O)c3sccc3C)CC2)nc2nnc(C)n12 | 566 s |
| CC(=O)N1c2ccc(S(=O)(=O)N3CCCC3)cc2CC1C(=O)NCCCN1CCCCC1 (stereo not given) | 626 s |
| CCOC(=O)c1c(C)c(CCC(=O)N2CCN(c3ccccn3)CC2)c(C)n1C | 646 s |
| CCn1cc(S(=O)(=O)NCCn2c(C)cnc2-c2ccccc2)cn1 | 560 s |
| CCNC(=O)c1n[nH]c2c1CN(C(=O)c1cccc(Br)c1)CC2 | 678 s |
| O=C(Cn1nc2n(c1=O)CCCCC2)Nc1ccc(Br)cc1 | 726 s |
| COc1ccc(-c2noc(-c3nc(C)no3)n2)c(OC)c1 | 888 s |
| Cn1cnc(S(=O)(=O)N2CCC(Cc3nncn3Cc3ccccc3)CC2)c1 | 618 s |
| C=CCn1nnc(NCc2ccc(-c3ccc(Cl)cc3Cl)o2)n1 | 1160 s |
| CC(C)OCCCNC(=O)C1CCN(c2nc3cccnc3s2)CC1 | 659 s |
| O=S(=O)(c1cc(F)ccc1F)N1CCCCC1c1noc(COCC2CC2)n1 (stereo not given) | 1130 s |
| O=C(Cc1cccc(F)c1)Nc1cc(-c2cccs2)no1 | 947 s |
| CCOc1ccc(C2Cn3nnc(-c4nc(-c5ccccc5F)no4)c3CO2)cc1 (stereo not given) | 1100 s |
| CCc1nncn1C1CCN(S(=O)(=O)c2ccc(F)c(Cl)c2)CC1 | 734 s |
| CSc1ccc(CNC(=O)c2cn3cc(Cl)ccc3n2)cc1 | 895 s |
| O=C(NC1CCN(c2ccc(F)cc2)C1=O)c1ccc2c(c1)OCO2 (stereo not given) | 764 s |
| COc1cncc(C(=O)Nc2cc(F)ccc2F)c1 | 735 s |
| CCOC(=O)c1cccc(N2C=C(C#N)S(=O)(=O)c3ccc(C)cc32)c1 | 969 s |
| COc1cccc(-n2cc(C(=O)Oc3cccnc3)c3ccccc3c2=O)c1 | 926 s |
| Cc1ccccc1Nc1c(-c2ccc(Br)cc2)nc2cnccn12 | 1060 s |
| CC(C)NC(=O)NCc1ccc2c(c1)N(C(=O)c1ccccc1)C(C)C2 (stereo not given) | 778 s |
| Cn1cc(CCNC(=O)Nc2ccccc2C(F)(F)F)c2cccnc21 | 779 s |
| COc1ccc(CN(C)Cc2cc(=O)n3cc(C)ccc3n2)cc1 | 598 s |

| SMILES | RP-LC retention time |
| --- | --- |
| Cc1ccc2nc(-c3ccc(N4CCOCC4)cc3)c(Nc3ccc4c(c3)OCO4)n2c1 | 690 s |
| O=c1c2sccc2n(Cc2nc(-c3ccc(C(F)(F)F)cc3)no2)c(=O)n1Cc1ccccc1 | 1200 s |
| Fc1ccc(-c2nc(-c3ccc4nncn4c3)no2)c(Cl)c1 | 849 s |
| COc1ccc(C(=O)Nc2nc(-c3ccc4c(c3)NC(=O)C(C)O4)c(C)s2)cc1 (stereo not given) | 924 s |
| O=C(C1CCN(c2cc(N3CCCCC3)ncn2)CC1)N1CCN(c2ccccc2)CC1 | 724 s |
| COc1ccc(-c2nc(-c3ccc(NS(C)(=O)=O)cc3)no2)c(OC)c1 | 885 s |
| CCOC(=O)CN1CC2=C(C1=O)C(c1ccc(OC)cc1)NC(=O)N2 (stereo not given) | 618 s |
| COc1ccc(-c2noc(C3CCCN3C(=O)c3ccccc3OC)n2)cc1 (stereo not given) | 901 s |
| COc1ccc(CCNc2nc(-c3ccc(OC)c(OC)c3)cs2)cc1OC | 728 s |
| CCOC(=O)c1cccc(Nc2c(-c3cccc(O)c3)nc3cnccn23)c1 | 748 s |
| CCc1noc(-c2ccc(-n3cnc(C(=O)N(C)C4CCCCC4)c3)nc2)n1 | 944 s |
| Cc1ccc(-c2cc3c(=O)n(Cc4nc(-c5ccc(Br)cc5)no4)ncn3n2)c(C)c1 | 1340 s |
| CCN1c2ccc(F)cc2C(=O)NC12CCN(C(=O)c1cccc(F)c1)CC2 | 791 s |
| CCN1c2cc(F)ccc2C(=O)NC12CCN(C(=O)c1ccccc1)CC2 | 742 s |
| CC1CCCN(CCCNC(=O)CC2CCN(C(=O)C3CCCCC3)CC2)C1 (stereo not given) | 604 s |
| Cc1cc(SCC(=O)N2CCCc3ccccc32)nc(C)n1 | 722 s |
| Cc1ccc(Cn2cc(CCC(=O)N3CCN(c4ccccn4)CC3)c3ccccc32)cc1 | 777 s |
| CN(CCc1noc(-c2ccccc2)n1)C(=O)CSc1ccccc1 | 959 s |
| COc1cc(-n2nnc(C(=O)NCc3ccco3)c2N)ccc1Cl | 765 s |
| CN1C(=O)[C@H]2CN(Cc3cc(F)cc(F)c3)C[C@H]2C1=O | 610 s |
| Cc1ccc2[nH]c(C(=O)N3CCOCC3)cc2c1 | 582 s |
